Results as given in BindingDB's records for patent US20250230171 (Moma Therapeutics, 2025).

Target: T1, DNA polymerase theta (POLQ) (2-894)
T1 construct: 2-894
Test: ATPase Assay
Description: POLθ-mediated ATP hydrolysis was measured using the ADP-Glo Kinase Assay (Promega Corporation, Madison, WI). Reactions were performed in white 384-well small-volume microplates (Greiner Bio-One, Frickenhausen, Germany) using a total volume of 15 μL. The ATPase reaction consisted of 1 nM biotinylated Avi-POLθ[2-894], 5 nM of a 50 nucleotide poly-thymine repeat single-stranded DNA (PolyT(50) ssDNA), and 100 μM ATP in 5 μL of assay buffer (50 mM Tris, pH 7.5, 80 mM KCl, 10 MgCl2, 1 mM DTT, 5% glycerol, 0.01% BSA, 0.01% Tween-20). Inhibition of POLΘATPase activity was determined by preparing 11-point serial dilutions of the test compounds in 100% DMSO, then transferring 30 nL of the compounds into the ATPase reaction using an Echo acoustic liquid handler (Beckman Coulter, Brea, CA). DMSO-treated wells containing either all of the reaction components (1 nM biotinylated Avi-POLθ[2-894], 5 nM PolyT(50) ssDNA, 100 μM ATP) or with assay buffer substituted for the biotinylated Avi-POLθ[2-894](0 nM biotinylated Avi-POLθ[2-894], 5 nM PolyT(50) ssDNA, 100 μM ATP) were used to define the maximum and minimum response in the assay. Following a one-hour incubation at ambient temperature, 5 μL of ADP-Glo Reagent was added to the ATPase reaction, and this mixture was allowed to incubate at ambient temperature for an additional hour. Lastly, 5 μL of Kinase Detection Reagent was added, followed by a third one-hour incubation at ambient temperature. The reagent concentrations listed represent the amounts only in the 5 μL ATPase reaction volume.

Row | Structure (SMILES) | IC50 [nM]
1 | COc1cnc(Cl)cc1-c1cc(C)ncc1C(=O)Nc1nc2c(s1)CN(C(=O)c1nc(C(F)F)ccc1OC)C2 [US20250230171, Compound 415] | 8
2 | COc1cnc(Cl)cc1-c1cc(C)ncc1C(=O)Nc1nc2c(s1)CN(C(=O)c1ccc(OC(F)F)nc1)C2 [US20250230171, Compound 32] | 8
3 | COc1cc(Cl)ccc1C(=O)N1Cc2nc(NC(=O)c3cnc(C)cc3-c3cc(C#N)ccc3OC)sc2C1 [US20250230171, Compound 467] | 8
4 | COc1ccc(C#N)cc1-c1cc(C)ncc1C(=O)Nc1nc2c(s1)CN(C(=O)c1cc(C(F)F)ccc1F)C2 [US20250230171, Compound 433] | 8
5 | COc1cnc(Cl)cc1-c1cc(C)ncc1C(=O)Nc1nc2c(s1)CN(C(=O)C1CC3(CC(C)C3)C1)C2 (stereo not drawn) [US20250230171, Compound 418] | 8
6 | COc1cnc(Cl)cc1-c1cc(C)ncc1C(=O)Nc1nc2c(s1)CN(C(=O)c1cnc(C)c(C)n1)C2 [US20250230171, Compound 416] | 8
7 | COc1cnc(Cl)cc1-c1cc(C)ncc1C(=O)Nc1nc2c(s1)CN(C(=O)c1ncc(C(F)F)cn1)C2 [US20250230171, Compound 400] | 8
8 | COc1cnc(Cl)cc1-c1cc(C)ncc1C(=O)Nc1nc2c(s1)CN(C(=O)c1ccc(C(F)F)nn1)C2 [US20250230171, Compound 454] | 8
9 | COc1cnc(Cl)cc1-c1cc(C)ncc1C(=O)Nc1nc2c(s1)CN(C(=O)c1cc(Cl)nn1C)C2 [US20250230171, Compound 436] | 8
10 | COc1cnc(Cl)cc1-c1cc(C)ncc1C(=O)Nc1nc2c(s1)CN(C(=O)c1cccn3cncc13)C2 [US20250230171, Compound 462] | 8
11 | COc1cnc(Cl)cc1-c1cc(C)ncc1C(=O)Nc1nc2c(s1)CN(C(=O)c1ccc(C(F)F)nc1OC)C2 [US20250230171, Compound 384] | 8
12 | COc1cnc(Cl)cc1-c1cc(C)ncc1C(=O)Nc1nc2c(s1)CN(C(=O)c1nc(Cl)ccc1C)C2 [US20250230171, Compound 450] | 8
13 | COc1ccc(C#N)cc1-c1cc(C)ncc1C(=O)Nc1nc2c(s1)CN(C(=O)c1ccc(C(F)F)cc1)C2 [US20250230171, Compound 438] | 8
14 | COc1ccc(C#N)cc1-c1cc(C)ncc1C(=O)Nc1nc2c(s1)CN(C(=O)c1cccc(Cl)c1OC)C2 [US20250230171, Compound 422] | 8
15 | COc1cnc(Cl)cc1-c1cc(C)ncc1C(=O)Nc1nc2c(s1)CN(C(=O)c1c(Cl)c(C)nn1C)C2 [US20250230171, Compound 408] | 8
16 | COc1cnc(Cl)cc1-c1cc(C)ncc1C(=O)Nc1nc2c(s1)CN(C(=O)c1nn(C)cc1F)C2 [US20250230171, Compound 435] | 8
17 | COc1cnc(C(=O)N2Cc3nc(NC(=O)c4cnc(C)cc4-c4cc(Cl)ncc4OC)sc3C2)c(OC)n1 [US20250230171, Compound 440] | 8
18 | COc1cnc(Cl)cc1-c1cc(C)ncc1C(=O)Nc1nc2c(s1)CN(C(=O)c1cnc(C(F)F)cc1C)C2 [US20250230171, Compound 466] | 8
19 | COc1cnc(Cl)cc1-c1cc(C)ncc1C(=O)Nc1nc2c(s1)CN(C(=O)c1ccnc(C(F)(F)F)n1)C2 [US20250230171, Compound 443] | 8
20 | COc1cnc(Cl)cc1-c1cc(C)ncc1C(=O)Nc1nc2c(s1)CN(C(=O)c1ccc(C(F)F)c(Cl)c1)C2 [US20250230171, Compound 381] | 8
21 | COc1cnc(Cl)cc1-c1cc(C)ncc1C(=O)Nc1nc2c(s1)CN(C(=O)c1ncccc1Cl)C2 [US20250230171, Compound 459] | 8
22 | COc1cnc(Cl)cc1-c1cc(C)ncc1C(=O)Nc1nc2c(s1)CN(C(=O)c1nccc(C(F)(F)F)n1)C2 [US20250230171, Compound 431] | 8

Continued, values first:

Row | IC50 [nM] | Structure (SMILES)
23 | 8 | COc1cnc(Cl)cc1-c1cc(C)ncc1C(=O)Nc1nc2c(s1)CN(C(=O)c1ncc(C(C)(F)F)cc1Cl)C2 [US20250230171, Compound 501]
24 | 8 | COc1cnc(Cl)cc1-c1cc(C)ncc1C(=O)Nc1nc2c(s1)CN(C(=O)c1cccnc1Cl)C2 [US20250230171, Compound 524]
25 | 32.5 | COc1ccc(C#N)cc1-c1cc(C)ncc1C(=O)Nc1nc2c(s1)CN(C(=O)c1cccc(C(F)F)n1)C2 [US20250230171, Compound 538]
26 | 8 | COc1ccc(C#N)cc1-c1cc(C)ncc1C(=O)Nc1nc2c(s1)CN(C(=O)c1ccc(C(F)F)cc1Cl)C2 [US20250230171, Compound 519]
27 | 8 | COc1ccc2oc(C(=O)N3Cc4nc(NC(=O)c5cnc(C)cc5-c5cc(Cl)ncc5OC)sc4C3)nc2c1 [US20250230171, Compound 472]
28 | 32.5 | COc1cnc(Cl)cc1-c1cc(C)ncc1C(=O)Nc1nc2c(s1)CN(C(=O)c1nc(C)cn1C)C2 [US20250230171, Compound 543]
29 | 8 | COc1cnc(Cl)cc1-c1cc(C)ncc1C(=O)Nc1nc2c(s1)CN(C(=O)c1nc(C)c(C)o1)C2 [US20250230171, Compound 529]
30 | 32.5 | COc1ncc(C#N)cc1-c1cc(C)ncc1C(=O)Nc1nc2c(s1)CN(C(=O)c1ccc(C(F)F)cn1)C2 [US20250230171, Compound 540]
31 | 8 | COc1cnc(Cl)cc1-c1cc(C)ncc1C(=O)Nc1nc2c(s1)CN(C(=O)c1c(C#N)cnn1C)C2 [US20250230171, Compound 515]
32 | 8 | COc1cnc(Cl)cc1-c1cc(C)ncc1C(=O)Nc1nc2c(s1)CN(C(=O)C1CC3(CC(F)C3)C1)C2 (stereo not drawn) [US20250230171, Compound 473]
33 | 8 | COc1cnc(Cl)cc1-c1cc(C)ncc1C(=O)Nc1nc2c(s1)CN(C(=O)c1cnc(OC)c(C(F)F)n1)C2 [US20250230171, Compound 531]
34 | 8 | COc1cnc(Cl)cc1-c1cc(C)ncc1C(=O)Nc1nc2c(s1)CN(C(=O)c1cnc(C(F)(F)F)nc1C)C2 [US20250230171, Compound 477]
35 | 32.5 | COc1cnc(Cl)cc1-c1cc(C)ncc1C(=O)Nc1nc2c(s1)CN(C(=O)C1CC13CC3)C2 (racemic) [US20250230171, Compound 535]
36 | 100 | COc1cnc(Cl)cc1-c1cc(C)ncc1C(=O)Nc1nc2c(s1)CN(C(=O)c1cnc(C)n1C)C2 [US20250230171, Compound 546]
37 | 8 | COc1cnc(Cl)cc1-c1cc(C)ncc1C(=O)Nc1nc2c(s1)CN(C(=O)c1cncn1C1CC1)C2 [US20250230171, Compound 527]
38 | 8 | COc1cnc(Cl)cc1-c1cc(C)ncc1C(=O)Nc1nc2c(s1)CN(S(=O)(=O)c1ccccn1)C2 [US20250230171, Compound 507]

Row | IC50 [nM] | Structure (SMILES)
39 | 8 | COc1ncc(Cl)c(C(=O)N2Cc3nc(NC(=O)c4cnc(C)cc4-c4cc(Cl)ncc4OC)sc3C2)n1 [US20250230171, Compound 481]
40 | 8 | COc1cnc(Cl)cc1-c1cc(C)ncc1C(=O)Nc1nc2c(s1)CN(C(=O)c1nc(C)ncc1Cl)C2 [US20250230171, Compound 479]
41 | 8 | COc1cnc(Cl)cc1-c1cc(C)ncc1C(=O)Nc1nc2c(s1)CN(C(=O)c1cnn(C(F)(F)F)c1)C2 [US20250230171, Compound 513]
42 | 32.5 | COc1cnc(Cl)cc1-c1cc(C)ncc1C(=O)Nc1nc2c(s1)CN(C(=O)c1cncc(C(F)F)n1)C2 [US20250230171, Compound 541]
43 | 8 | COc1cnc(Cl)cc1-c1cc(C)ncc1C(=O)Nc1nc2c(s1)CN(C(=O)c1cc(Cl)cc(C)n1)C2 [US20250230171, Compound 505]
44 | 8 | COc1cnc(Cl)cc1-c1cc(C)ncc1C(=O)Nc1nc2c(s1)CN(C(=O)c1cccc(C)n1)C2 [US20250230171, Compound 497]
45 | 8 | COc1cnc(Cl)cc1-c1cc(C)ncc1C(=O)Nc1nc2c(s1)CN(C(=O)C1CC3(CC(C#N)C3)C1)C2 (stereo not drawn) [US20250230171, Compound 532]
46 | 32.5 | COc1ncc(Cl)cc1-c1cc(C)ncc1C(=O)Nc1nc2c(s1)CN(C(=O)c1cccc(C(F)F)n1)C2 [US20250230171, Compound 539]
47 | 8 | COc1cnc(Cl)cc1-c1cc(C)ncc1C(=O)Nc1nc2c(s1)CN(C(=O)c1cc(Cl)cnc1OC)C2 [US20250230171, Compound 486]
48 | 8 | COc1cnc(Cl)cc1-c1cc(C)ncc1C(=O)Nc1nc2c(s1)CN(C(=O)c1ncncc1OC)C2 [US20250230171, Compound 514]
49 | 8 | COc1cc2nn(C)cc2cc1-c1cc(C)ncc1C(=O)Nc1nc2c(s1)CN(C(=O)c1cccnc1OC)C2 [US20250230171, Compound 533]
50 | 8 | COc1cnc(Cl)cc1-c1cc(C)ncc1C(=O)Nc1nc2c(s1)CN(C(=O)c1nccnc1C)C2 [US20250230171, Compound 520]
51 | 8 | COc1cnc(Cl)cc1-c1cc(C)ncc1C(=O)Nc1nc2c(s1)CN(C(=O)c1nc(C)ccc1Cl)C2 [US20250230171, Compound 498]
52 | 8 | COc1cnc(Cl)cc1-c1cc(C)ncc1C(=O)Nc1nc2c(s1)CN(C(=O)c1ccc(OC)c3cncn13)C2 [US20250230171, Compound 502]
53 | 8 | COc1cnc(Cl)cc1-c1cc(C)ncc1C(=O)Nc1nc2c(s1)CN(C(=O)c1ncc(Cl)cc1C(C)(F)F)C2 [US20250230171, Compound 595]
